Target: Factor D (Homo sapiens (Human), UniProt P00746)
Assay: Factor D esterolytic assay
Assay type: biochemical
Settings: Z-Lys-SBzl substrate, 100 mM HEPES, 500 mM NaCl, pH 7.5, 10% DMSO; tested a minimum of three times; read-out: Measured Ki (IC50) Value for Compounds: IC50
Method in brief: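 Buffer was 100 mM HEPES, 500 mM NaCl, pH 7.5 with 10% DMSO. Compound and Factor D were combined, then Z-Lys-SBzl (1.29 mM) was added either at once or following room-temperature incubation. Rates came from DTNB colour at 405 nm minus 690 nm over 600 s, with percent inhibition giving IC50 over at least three tests.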

Chain of Factor D (P00746 26-253): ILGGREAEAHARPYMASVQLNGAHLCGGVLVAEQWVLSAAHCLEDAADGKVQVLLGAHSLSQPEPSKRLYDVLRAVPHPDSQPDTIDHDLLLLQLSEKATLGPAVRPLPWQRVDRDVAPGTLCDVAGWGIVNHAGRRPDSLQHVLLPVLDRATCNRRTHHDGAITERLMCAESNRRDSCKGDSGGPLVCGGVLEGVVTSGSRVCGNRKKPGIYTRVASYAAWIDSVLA

Compound | IC50 [µM]
CC(C)n1nc(COc2ccccc2C(=O)O)c2cc(-c3cccc(CN)c3)ccc21 [Compound 299d, 2-((5-(3-(aminomethyl)phenyl)-1-isopropyl-1H-indazol-3-yl)methoxy)benzoic acid] | < 1
Cn1nc2ccc(-c3cccc(CN)c3)cc2c1COc1ccccc1CC(=O)O [Compound 184e, 2-(2-((5-(3-(aminomethyl)phenyl)-2-methyl-2H-indazol-3-yl)methoxy)phenyl)acetic acid] | < 1
COc1ccc(CC(=O)O)c(OCc2coc3c(NCC(C)C)cc(-c4cccc(CN)c4)cc23)c1 [Compound 279c, 2-(2-((5-(3-(aminomethyl)phenyl)-7-(isobutylamino)benzofuran-3-yl)methoxy)-4-methoxyphenyl)acetic acid] | < 1
CCCc1oc2ccc(-c3cccc(CN)c3)cc2c1COc1cc(OC)ccc1CC(=O)O [Compound 284e, 2-(2-((5-(3-(aminomethyl)phenyl)-2-propylbenzofuran-3-yl)methoxy)-4-methoxyphenyl)acetic acid] | < 1
NCc1cccc(-c2cc(CCC3CC3)c3occ(COc4ccccc4CC(=O)O)c3c2)c1 [Compound 170b, 2-(2-((5-(3-(aminomethyl)phenyl)-7-(2-cyclopropylethyl)benzofuran-3-yl)methoxy)phenyl)acetic acid] | < 1
NCc1cccc(-c2cc(-c3ccccc3N)c3occ(COc4ccccc4CC(=O)O)c3c2)c1 [Compound 222c, 2-(2-((5-(3-(aminomethyl)phenyl)-7-(2-aminophenyl)benzofuran-3-yl)methoxy)phenyl)acetic acid] | < 1
NCc1cccc(-c2coc3c(COc4ccccc4CC(=O)O)cccc23)c1 [Compound 96e, 2-(2-((3-(3-(aminomethyl)phenyl)benzofuran-7-yl)methoxy)phenyl)acetic acid] | > 10
CC(C)n1nc(COc2ccccc2CC(=O)O)c2cc(-c3ccnc(CN)c3)ccc21 [Compound 266b, 2-(2-((5-(2-(aminomethyl)pyridin-4-yl)-1-isopropyl-1H-indazol-3-yl)methoxy)phenyl)acetic acid] | < 1
CC(C)n1nc(COc2c(C#N)cccc2CC(=O)O)c2cc(-c3cccc(CN)c3)ccc21 [Compound 305c, 2-(2-((5-(3-(aminomethyl)phenyl)-1-isopropyl-1H-indazol-3-yl)methoxy)-3-cyanophenyl)acetic acid] | < 1
NCc1cccc(-c2cc(NCC3CCOC3)c3occ(COc4ccccc4CC(=O)O)c3c2)c1 (stereo not drawn) [Compound 147d, 2-(2-((5-(3-(aminomethyl)phenyl)-7-(((tetrahydrofuran-3-yl)methyl)amino)benzofuran-3-yl)methoxy)phenyl)acetic acid] | < 1
Cc1oc2ccc(-c3cccc(CN)c3)cc2c1COc1cc(F)ccc1CC(=O)O [Compound 200c, 2-(2-((5-(3-(aminomethyl)phenyl)-2-methylbenzofuran-3-yl)methoxy)-4-fluorophenyl)acetic acid] | < 1
COc1ccc(CC(=O)O)c(OCc2c(C)oc3ccc(-c4cccc(CN)n4)cc23)c1 [Compound 245d, 2-(2-((5-(6-(aminomethyl)pyridin-2-yl)-2-methylbenzofuran-3-yl)methoxy)-4-methoxyphenyl)acetic acid] | < 1
NCc1cccc(-c2ccc3occ(COc4ccc(F)cc4CC(=O)O)c3c2)c1 [Compound 5d, 2-(2-((5-(3-(aminomethyl)phenyl)benzofuran-3-yl)methoxy)-5-fluorophenyl)acetic acid] | < 1
NCc1cccc(-c2ccc3c(c2)c(COc2ccccc2CC(=O)O)nn3-c2ccncc2)c1 [Compound 265c, 2-(2-((5-(3-(aminomethyl)phenyl)-1-(pyridin-4-yl)-1H-indazol-3-yl)methoxy)phenyl)acetic acid] | < 1
NCc1cccc(-c2cc(NCC3CC3)c3occ(COc4ccccc4CC(=O)O)c3c2)c1 [Compound 85c, 2-(2-((5-(3-(aminomethyl)phenyl)-7-((cyclopropylmethyl)amino)benzofuran-3-yl)methoxy)phenyl)acetic acid] | < 1
COc1ccc(CC(=O)O)c(OCc2c(C(F)F)oc3c(C4CC4)cc(-c4cccc(CN)c4)cc23)c1 [Compound 234d, 2-(2-((5-(3-(aminomethyl)phenyl)-7-cyclopropyl-2-(difluoromethyl)benzofuran-3-yl)methoxy)-4-methoxyphenyl)acetic acid] | < 1
CCCCC(C(=O)O)c1ccccc1OCc1nn(C(C)C)c2ccc(-c3cccc(CN)c3)cc12 (stereo not drawn) [Compound 312f, 2-(2-((5-(3-(aminomethyl)phenyl)-1-isopropyl-1H-indazol-3-yl)methoxy)phenyl)hexanoic acid] | 1 to 10
NCc1cccc(-c2ccc3occ(COc4cccc(CC(=O)O)c4)c3c2)c1 [Compound 4d, 2-(3-((5-(3-(aminomethyl)phenyl)benzofuran-3-yl)methoxy)phenyl)acetic acid] | 1 to 10

Compound | IC50 [µM]
Cc1ccc(OCc2coc3ccc(-c4cccc(CN)c4)cc23)c(CC(=O)O)c1 [Compound 105d, 2-(2-((5-(3-(aminomethyl)phenyl)benzofuran-3-yl)methoxy)-5-methylphenyl)acetic acid] | < 1
NCc1cc(F)cc(-c2ccc3occ(Cc4cccc(CC(=O)O)c4O)c3c2)c1 [Compound 40d, 2-(3-((5-(3-(aminomethyl)-5-fluorophenyl)benzofuran-3-yl)methyl)-2-hydroxyphenyl)acetic acid] | 1 to 10
C[C@@H](N)c1cccc(-c2ccc3occ(COc4ccccc4CC(=O)O)c3c2)c1 [Compound 52c, (R)-2-(2-((5-(3-(1-aminoethyl)phenyl)benzofuran-3-yl)methoxy)phenyl)acetic acid] | < 1
Cc1ccc(S(=O)(=O)n2cc(COc3ccccc3CC(=O)O)c3cc(-c4cccc(CN)c4)ccc32)cc1 [Compound 66f, 2-(2-((5-(3-(aminomethyl)phenyl)-1-tosyl-1H-indol-3-yl)methoxy)phenyl)acetic acid] | < 1
NCc1cccc(-c2cc(COc3ccccc3)cc3cc(COc4ccccc4CC(=O)O)oc23)c1 [Compound 33f, 2-(2-((7-(3-(aminomethyl)phenyl)-5-(phenoxymethyl)benzofuran-2-yl)methoxy)phenyl)acetic acid] | < 1
NCc1cccc(-c2cccc3cc(COc4cccc(CC(=O)O)c4)oc23)c1 [Compound 34c, 2-(3-((7-(3-(aminomethyl)phenyl)benzofuran-2-yl)methoxy)phenyl)acetic acid] | > 10
Cn1nc(Nc2ccccc2CC(=O)O)c2cc(-c3cccc(CN)c3)ccc21 [Compound 77d, 2-(2-((5-(3-(aminomethyl)phenyl)-1-methyl-1H-indazol-3-yl)amino)phenyl)acetic acid] | > 10
Cc1cccc(CC(=O)O)c1OCc1nn(C(C)C)c2ccc(-c3cccc(CN)c3)cc12 [Compound 306c, 2-(2-((5-(3-(aminomethyl)phenyl)-1-isopropyl-1H-indazol-3-yl)methoxy)-3-methylphenyl)acetic acid] | < 1
COc1ccc(OCc2coc3ccc(-c4cccc(CN)c4)cc23)c(CC(=O)O)c1 [Compound 106c, 2-(2-((5-(3-(aminomethyl)phenyl)benzofuran-3-yl)methoxy)-5-methoxyphenyl)acetic acid] | < 1
C[C@H](N)c1cccc(-c2ccc3occ(COc4ccccc4CC(=O)O)c3c2)c1 [Compound 54c, (S)-2-(2-((5-(3-(1-aminoethyl)phenyl)benzofuran-3-yl)methoxy)phenyl)acetic acid] | < 1
Cc1nn(C)c(C)c1-c1cc(-c2cccc(CN)c2)cc2c(COc3ccccc3CC(=O)O)coc12 [Compound 268c, 2-(2-((5-(3-(aminomethyl)phenyl)-7-(1,3,5-trimethyl-1H-pyrazol-4-yl)benzofuran-3-yl)methoxy)phenyl)acetic acid] | < 1
CC(C)n1nc(C(=O)Nc2ccccc2CC(=O)O)c2cc(-c3cccc(CN)c3)ccc21 [Compound 293c, 2-(2-(5-(3-(aminomethyl)phenyl)-1-isopropyl-1H-indazole-3-carboxamido)phenyl)acetic acid] | < 1
NCc1cccc(-c2cc(COc3ccccc3)c3occ(COc4ccccc4CC(=O)O)c3c2)c1 [Compound 92e, 2-(2-((5-(3-(aminomethyl)phenyl)-7-(phenoxymethyl)benzofuran-3-yl)methoxy)phenyl)acetic acid] | < 1
NCc1cccc(-c2cc(COc3ccccc3CC(=O)O)cc3cc(COc4ccccc4CC(=O)O)oc23)c1F [Compound 13b, 2,2′-((((7-(3-(aminomethyl)-2-fluorophenyl)benzofuran-2,5-diyl)bis(methylene))bis(oxy))bis(2,1-phenylene))diacetic acid] | < 1
NCc1cccc(-c2cc(/C=C/C3CC3)c3occ(COc4ccccc4CC(=O)O)c3c2)c1 [Compound 132d, (E)-2-(2-((5-(3-(aminomethyl)phenyl)-7-(2-cyclopropylvinyl)benzofuran-3-yl)methoxy)phenyl)acetic acid] | < 1
CC(C)n1nc(COc2ccccc2CC(=O)O)c2cc(-c3ccc(O)c(CN)c3)ccc21 [Compound 317d, 2-(2-((5-(3-(aminomethyl)-4-hydroxyphenyl)-1-isopropyl-1H-indazol-3-yl)methoxy)phenyl)acetic acid] | 1 to 10
COC(=O)c1cc(-c2cccc(CN)c2)c2oc(COc3ccccc3CC(=O)O)cc2c1 [Compound 23c, 2-(2-((7-(3-(aminomethyl)phenyl)-5-(methoxycarbonyl)benzofuran-2-yl)methoxy)phenyl)acetic acid] | < 1
NCc1cccc(-c2ccc3occ(COc4c(CN)cccc4CC(=O)O)c3c2)c1 [Compound 145c, 2-(3-(aminomethyl)-2-((5-(3-(aminomethyl)phenyl)benzofuran-3-yl)methoxy)phenyl)acetic acid] | < 1

Source: patent US20250186391A1, “ORAL COMPLEMENT FACTOR D INHIBITORS” (BioCryst Pharmaceuticals, Inc., priority 2019, published 2025)
